One experiment addresses T1, human leukocyte elastase (Homo sapiens, UniProt P08246).
T1 sequence (P08246 30-267): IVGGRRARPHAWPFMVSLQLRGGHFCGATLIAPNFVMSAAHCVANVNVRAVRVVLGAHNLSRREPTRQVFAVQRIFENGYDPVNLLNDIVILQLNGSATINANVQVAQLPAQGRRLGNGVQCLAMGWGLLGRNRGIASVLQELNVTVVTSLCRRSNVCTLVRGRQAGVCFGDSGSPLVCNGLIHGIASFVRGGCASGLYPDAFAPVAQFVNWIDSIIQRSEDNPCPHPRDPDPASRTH
The experiment in a line: Inhibition of hydrolysis of methoxysuccinyl-ala-ala-pro-val-nitroanilide by human leukocyte elastase. The format is biochemical. Conditions: for IC50: human leukocyte elastase, MSN substrate. The text has this:
The compounds useful in practicing the method of the invention are inhibitors of leucocyte elastase and cathepsin G. Since elastase is involved in the breakdown of elastin and subsequently involved in a number of disease states, a compound which blocks the action of elastase will be useful in the management, treatment and prevention of such diseases. […] Nakajima, K., et al., J. Biol. Chem., 254, 4027 (1979). This is useful in measuring inhibition of elastase because the hydrolysis of MSN is easily quantitated by measuring the release of p-nitroaniline spectrophotometrically. Therefore, the degree of elastase inhibition can be readily measured by noting the rate of inhibition of the hydrolysis of MSN. The compounds of the invention are therefore tested in vitro as follows. The rate of hydrolysis of methoxysuccinyl-ala-ala-pro-val-nitroanalide by human leukocyte elastase is monitored spectrophotometrically in the presence and absence of test compound. The inhibition of the enzymatic reaction by 20% or more at a given concentration of test compound is taken as positive inhibition of elastase. IC50 values are then determined.

Experiment [1] has as its target mammalian prolyl-4-hydroxylase (Homo sapiens, UniProt P13674). The experiment in a line: In vitro prolyl-4-hydroxylase inhibition. In kind it is biochemical. Particulars: purified mammalian enzyme. The text has this:
Fibrosis is a connective tissue disease characterized by overaccumulation of extracellular fibrous matrix components, particularly collagen. Since prolyl hydroxylation is required for active secretion and thermal stability of collagen, fibrosis could be treated by inhibitors of prolyl-4-hydroxylase, such as the compounds of this invention. See G. C. Fuller, J. Med. Chem., 24, 651-658 (1981). The following procedure is used to test the compounds in vitro for prolyl-4-hydroxylase inhibition.
Purified mammalian prolyl-4-hydroxylase [EC 1.14.11.2:prolyl-glycyl-peptide, 2-oxyglutarate: oxidoreductase] is incubated with substrates (i.e., native unhydroxylated collagen of either 60,000 molecular weight, Km 10^-8 M; or 90,000 molecular weight, Km 10^-11 M), α-ketoglutarate, oxygen, and enzyme cofactors, with or without the test compounds. End-point is determined by measuring release of tritiated water during the hydroxylation of H^3 -peptidyl proline or release of ^14 CO2 formed from the coupled decarboxylation of ^14 C-α-ketoglutarate. Data are reported as percent inhibition with test compound at a given concentration relative to the control assays without test compound.

Experiment [2] has as its system bleomycin-induced lung fibrosis. The experiment can be described thus: Bleomycin-induced lung fibrosis in male syrian hamsters. In kind it is in vivo, syrian hamster. Particulars: 100 mg/kg, day 21 relative to untreated animals. The text has this:
The procedure described by Kelley et al., J. Lab. Clin. Med., 96, 954-964 (1980), is used to test the compounds in vivo for activity against bleomycin-induced lung fibrosis in male syrian hamsters. […] Activities are reported as percent inhibitions at day 21 relative to untreated animals.

Experimental findings from patent publication US4649147A, “Treating elastin degradation with 1-(alkenoyl)azacycloalkyl carboxylic acids and derivatives” (G. D. Searle & Co., priority 1985, dated 1987) are described below.

The IC50 is the concentration that inhibits the measured activity by half. Higher therefore signals a need for much substance.

Chain of mammalian prolyl-4-hydroxylase (P13674 18-534): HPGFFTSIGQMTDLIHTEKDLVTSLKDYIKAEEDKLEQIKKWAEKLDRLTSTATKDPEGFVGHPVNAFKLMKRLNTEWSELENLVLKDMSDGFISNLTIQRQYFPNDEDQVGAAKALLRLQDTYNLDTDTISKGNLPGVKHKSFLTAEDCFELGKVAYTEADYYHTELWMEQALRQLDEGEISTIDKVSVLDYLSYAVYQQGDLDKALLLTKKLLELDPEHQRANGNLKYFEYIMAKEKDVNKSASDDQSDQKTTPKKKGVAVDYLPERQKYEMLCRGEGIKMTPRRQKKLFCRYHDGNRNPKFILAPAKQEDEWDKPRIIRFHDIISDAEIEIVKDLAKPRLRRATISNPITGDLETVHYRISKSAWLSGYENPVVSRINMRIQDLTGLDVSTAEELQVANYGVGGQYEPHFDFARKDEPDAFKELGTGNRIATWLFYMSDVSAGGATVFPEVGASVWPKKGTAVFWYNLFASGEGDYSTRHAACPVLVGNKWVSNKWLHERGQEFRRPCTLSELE
Chain of mammalian prolyl-4-hydroxylase (P07237 18-508 partner): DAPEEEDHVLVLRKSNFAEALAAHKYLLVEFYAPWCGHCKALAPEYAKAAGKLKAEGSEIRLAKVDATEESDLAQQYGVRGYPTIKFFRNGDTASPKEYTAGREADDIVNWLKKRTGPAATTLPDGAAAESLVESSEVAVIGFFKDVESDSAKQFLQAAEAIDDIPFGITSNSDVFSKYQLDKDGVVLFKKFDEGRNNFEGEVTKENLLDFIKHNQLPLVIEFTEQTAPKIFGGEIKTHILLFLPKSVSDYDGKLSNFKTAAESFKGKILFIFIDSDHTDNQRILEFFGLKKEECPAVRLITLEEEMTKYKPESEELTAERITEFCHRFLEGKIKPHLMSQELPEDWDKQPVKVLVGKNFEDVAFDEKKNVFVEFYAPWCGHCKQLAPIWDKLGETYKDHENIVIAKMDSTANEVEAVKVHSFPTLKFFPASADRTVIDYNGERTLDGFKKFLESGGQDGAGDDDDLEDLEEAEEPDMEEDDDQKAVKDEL

As for `CCCCCCCC/C=C\CCCCCCCC(=O)N1CCC[C@H]1C(=O)O` [Example 1, 1-(1-oxo-9Z-octadecenyl)proline], the IC50 was 7.8 µM against human leukocyte elastase and 4.4 µM in experiment [1].

On to `CCCCCCCC/C=C\CCCCCCCC(=O)N1CCCC(C(=O)O)C1` (stereo not shown) [Example 2, 1-(1-oxo-9Z-ocadecenyl)-3-piperidinecarboxylic acid], for which the IC50 at human leukocyte elastase was determined as 3.4 µM; in experiment [1] it was 5.9 µM.

Regarding `CCCCCCCC/C=C\CCCCCCCC(=O)N1CCC(C(=O)O)CC1` [Example 3, 1-(1-oxo-9Z-octadecenyl)-4-piperidinecarboxylic acid], the IC50 was found to be 4.6 µM against human leukocyte elastase and 9 µM in experiment [1].

`CCCCCCCC/C=C\CCCCCCCC(=O)N1CCC(C(=O)OCC)(c2ccccc2)CC1` [Example 4, ethyl 1-(1-oxo-9Z-octadecenyl)-4-phenyl-4-piperidinecarboxylate] displayed an inhibition against elastase on human leukocyte elastase (at 20 mcM) of 22%.

In turn, `CCCCCCCC/C=C\CCCCCCCC(=O)N1CCC(C(=O)O)(c2ccccc2)CC1` [Example 5, 1-(1-oxo-9Z-octadecenyl)-4-phenyl-4-piperidinecarboxylic acid] displayed a half-inhibitory concentration (IC50) against human leukocyte elastase of 1.2 µM.

For the compound `CCCCCCCC/C=C\CCCCCCCC(=O)N1CCC[C@H]1C(=O)OC` [Example 6, 1-(1-oxo-9Z-octadecenyl)proline methyl ester], in experiment [2], the “Bleomycin-induced Fibrosis, % Inhib. of Hydroxyproline” value was determined as 30.1% and the “Bleomycin-induced Fibrosis, % Inhib. of Lung wt./body wt.” value stood at 33.0%.
